Key:
Type in all cases: cell-based, murine
BC3A cells = test: Photoinactivation of cell line, colony forming assay; conditions: for fluence for photoinactivation to below the detection levels: 15 nM
Method: (§1) Cell lines and culture conditions. WEHI-3 (murine myelocytic leukemia), L1210 (murine lymphocytic leukemia) and P815 (murine mastocytoma) cells were grown in RPMI 1640 (GibcoBRL, Grand Island, N.Y.) supplemented with 10% FBS. BC3A (murine leukemia) cells were grown in RPMI 1640 supplemented with 10 μM β-mercaptoethanol and 10% FBS; ABE-8.1/2 (murine pre-B lymphoma) cells were grown in DMEM (GibcoBRL)--10 μM β-mercaptoethanol--10% FBS. All cell lines were obtained from the American Type Culture Collection (Rockville, Md.) and were cultured at 37° C. in a humidified 5% CO2 -incubator. Prior to incubation with Pc 4, the cell lines were centrifuged and resuspended in phosphate buffered saline (PBS)--10% FBS, pH 7.4.
(§2) Photosensitization. Aliquots of a 1.87 mM Pc 4 (kindly provided by Dr. M. E. Kenney) stock solution in dimethyl sulfoxide were kept at -80° C. in autoclaved brown glass vials. Immediately prior to the photosensitization, Pc4 was thawed and diluted in dimethyl formamide to yield a 10 μM working solution. […] Pc 4 was used at 15 nM throughout the experiments.
(§3) BM and cell line samples, were incubated with 15 nM Pc 4 for two hours at 37° C. at cell concentrations of 1.5×10^7 cells/mL. Aliquots of 1.5 mL were transferred to 24-well plates; separate plates were used for each sample.
(§4) In a second set of experiments, the cells were incubated with 15 nM Pc 4 at cell concentrations of 1.5×10^6 cells/mL. Prior to photoirradiation, the samples were centrifuged and the supernatants were aspirated and set aside. The cell concentrations were adjusted to 1.5×10^7 cells/mL by adding back an appropriate volume of the Pc 4 containing aspirates.
(§5) Photoinactivation. The light source used was a filtered xenon short arc lamp (Versa-Light, Model UV-R6G, Medic Lightech, Ltd., Haifa, Israel). It was used to deliver red light (λ 600-700 nm) to the sensitized cells. After a 20 minute warm up period of the instrument, the distance from the light source to the bottom of the 24-well plate was adjusted to obtain a fluence rate of 26.6 mW/cm^2, as measured with a radiometer (Model IL 1350, International Light, Newburyport, Mass.). Samples were placed under the light source and were stirred during the irradiations. Before and after the irradiations, samples were kept in the dark.
(§6) Cell line samples were plated (in triplicate) in a semi-solid medium which consisted of DMEM--20% vol/vol serum (2/3 horse serum, 1/3 FBS)--3 mM glutamine--60 μM β-mercaptoethanol--0.3% wt/vol agar. The samples were incubated at 37° C. in a humidified 5% CO2 -incubator, and colonies consisting of more than 50 cells were counted after nine days.
(§7) Statistics. All assays were performed in triplicate unless mentioned otherwise. Data are expressed as mean values±standard error of the mean (SEM). Survival data are presented as surviving fractions relative to the surviving fractions of the untreated controls. The significance of the differences between experimental values was assessed by means of the Student's t-test.

P815 cells = test: as above
Method: as §1, §2, §3, §4, §5, §6, §7

WEHI-3 cells = test: as above
Method: as §1, §2, §3, §4, §5, §6, §7

[1] = Photosensitivity of committed BM progenitors, colony forming assay; conditions: mouse
Text: (§8) Animals. C57B1/6 (Ly-5.2) and B6SJ-cd45 ^b pep 3^b /BOY J (Ly-5.1), were obtained from The Jackson Laboratories (Bar Harbor, Me.) and were maintained in the animal facility of the New York Blood Center. After gamma-irradiation, the animals were housed in microisolator cages and provided with autoclaved food and autoclaved acidified water (pH=3) ad libitum. Preparation of bone marrow cell suspensions--Ly-5.1 mice were used as the source of donor BM. Mice (8-10 weeks old) were killed and the BM was harvested by flushing the femoral shafts with Hank's balanced salt solution (HBSS), pH 7.4. The cell suspensions were centrifuged, washed once and the cells were finally resuspended in HBSS--10% vol/vol fetal bovine serum (FBS, Gemini Bioproducts Inc., Calabasas, Calif.).
as §2, §3, §4, §5
(§9) Colony forming assays. BM samples were plated (in duplicate) in a semi-solid medium that contained IMDM (GibcoBRL), supplemented with 30% vol/vol FBS, 0.15% wt/vol deionized bovine serum albumin (Migliaccio, G., et al. Brit. J. Haematol. 67:129 (1987)) (Sigma, St. Louis, Mo.), 0.8% wt/vol methylcellulose, 75 μM β-mercaptoethanol (Sigma), antibiotics (100 U/mL penicillin, […], […] fungizone, GibcoBRL) and a cocktail of growth factors including: murine interleukin-3 (1% vol/vol COS-cell-derived supernatant, gift from Dr. K. Kaushansky), murine granulocyte-macrophage colony stimulating factor (1% vol/vol COS-cell-derived supernatant, gift from Dr. K. Kaushansky), recombinant human interleukin-11 (16 U/mL, gift from Genetics Institute, Cambridge, Mass.), recombinant rat stem cell factor (100 ng/mL), granulocyte colony stimulating factor (10 ng/mL), recombinant human erythropoietin (20 ng/mL, gifts from Amgen, Thousand Oaks, Calif.), and 800 U/mL murine thrombopoietin (800 U/mL, gift from Zymonetics, Seattle, Wash.). The samples were incubated at 37° C. in a humidified 5% CO2 -incubator and megakaryocyte colony forming units (CFU-Mk) were counted after 5 days. Blast forming units-erythroid (BFU-E), CFU-GM and mixed colonies (CFU-Mix) were counted after seven days.
(§10) Statistics. All assays were performed in triplicate unless mentioned otherwise. Data are expressed as mean values±standard error of the mean (SEM). Survival data are presented as surviving fractions relative to the surviving fractions of the untreated controls. […]

BFU-E = test: as above; conditions: 15 nM, 1.5×10^6 cells/mL
Text: as §8, §2, §3, §4, §5, §9, §10

CFU-GM = test: as above; conditions: 15 nM, 1.5×10^6 cells/mL
Text: as §8, §2, §3, §4, §5, §9, §10

CFU-Mix = test: as above; conditions: 15 nM, 1.5×10^6 cells/mL
Text: as §8, §2, §3, §4, §5, §9, §10

CFU-Mk = test: as above; conditions: 15 nM, 1.5×10^6 cells/mL
Text: as §8, §2, §3, §4, §5, §9, §10

[2] = system: committed BM progenitor cells; test: as above
Text: as §8, §2, §3, §4, §5, §9, §10

CN(C)CCC[Si](C)(C)O[Si]1(O)n2c3c4ccccc4c2N=C2N=C(N=c4c5ccccc5c(n41)=NC1=NC(=N3)c3ccccc31)c1ccccc12 (centres unmarked) [Pc 4, hydroxysiloxy-dimethylpropyl-N-dimethyl silicon phthalocyanine]
fluence for photoinactivation to below the detection levels (BC3A cells; 1.5×10^6 cells/mL): 6 J/cm^2
fluence for photoinactivation to below the detection levels (BC3A cells; 1.5×10^7 cells/mL): 12 J/cm^2
selectivity of photoinactivation towards the cell line (BC3A cells; 1.5×10^6 cells/mL): approximately 5 log10
selective photoinactivation (BC3A cells; 1.5×10^7 cells/mL, 18 J/cm^2): > 6 log10
fluence for photoinactivation to below the detection levels (P815 cells; 15 nM, 1.5×10^6 cells/mL): 6 J/cm^2
selectivity of photoinactivation towards the cell line (P815 cells; 1.5×10^6 cells/mL): ~3 logs
selective photoinactivation (P815 cells; 1.5×10^7 cells/mL, 18 J/cm^2): > 3 log10
viability at 0.015 µM (P815 cells; Mus musculus, P815, light or radiation study, read-out: surviving fraction): 0.053 ± 2.6e-06%
fluence for photoinactivation to below the detection levels (WEHI-3 cells; 15 nM, 1.5×10^6 cells/mL): 12 J/cm^2
selectivity of photoinactivation towards the cell line (WEHI-3 cells; 1.5×10^6 cells/mL): ~4 log10
selective photoinactivation (WEHI-3 cells; 1.5×10^7 cells/mL, 18 J/cm^2): 5 log10
viability at 0.015 µM (WEHI-3 cells; Mus musculus, WEHI-3, light or radiation study, read-out: surviving fraction): 0.00038%
cytotoxicity at 0.015 µM ([1]; bone marrow cfu-gm, 15 nM Pc 4, murine BM, read-out: losses of CFU-GM on incubation): 0 to 15%
viability at 0.015 µM ([1]; bone marrow progenitors, 15 nM, 1.5×10^7 cells/mL, 18 J/cm^2, read-out: surviving fraction (colony forming ability relative to untreated controls)): < 0.3%
fluence for photoinactivation to below the detection levels (BFU-E): 3 J/cm^2
fluence for photoinactivation to below the detection levels (CFU-GM): 6 J/cm^2
fluence for photoinactivation to below the detection levels (CFU-Mix): 3 J/cm^2
fluence for photoinactivation to below the detection levels (CFU-Mk): 6 J/cm^2
photosensitivity of all committed progenitor subsets ([2]; 15 nM, 1.5×10^7 cells/mL, 3 J/cm^2): resistant
loss of committed progenitor cells ([2]; Pc 4, 18 J/cm^2): 2-3 logs
